This is an account of results in patent US20060233845A1, “Micro/nanoparticle obtained from lipid-containing marine organisms for use in pharmaceutics and cosmetics” (priority 2002, published 2006).

Test [1] has as its system MRSA. Description: MRSA growth in vitro. The class given is cell-based, Staphylococcus aureus. The following applies: natural substances after the inventive method.
For test [2] the following is noted: Kreitlow, Dissertation Greifswald 2000; cited from earlier work.

On to `Cc1cc(O)cc2oc3cc(O)cc(O)c3c(=O)c12` [norlichexanthone], for which, in test [1], the “growth of MRSA in vitro” value was “inhibit MRSA-growth in vitro”.

On to `CC/C=C\C/C=C\C/C=C\CCCCCCCC(=O)O` [linolenic acid, Z,Z,Z-9,12,15-octadecatrienoic acid], for which the antibacterial activity entry in test [2] is on record as “antibacterial activity”.

In the case of `CCCCCC(O)/C=C/C=C\CCCCCCCC(=O)O` (stereo not shown) [coriolic acid], in test [2], the antibacterial activity entry was “antibacterial activity”.

`CCCCC/C=C/C=C/C(O)CCCCCCCC(=O)O` (stereo not shown) [dimorphecolic acid]: the antibacterial activity entry in test [2] is listed as “antibacterial activity”.
